Columns and labels:
[1] = system: animal models of schizophrenia; conditions: cited from earlier work
[2] = system: recognition index in mice; experiment: Novel object recognition test; type: in vivo
Experimental: This procedure was adapted from and performed as described in a previous paper. Habituation, training and test trials were performed in a black plastic rectangular arena (40 × 30 × 35 cm) illuminated with a light intensity of 335 lux. During the habituation trial (2 consecutive days), each animal was allowed to explore the arena for 10 min. The next day, during the training trial (T1), mice were placed in the arena and were presented with two identical objects (red glass cylinders; 6.5 cm in diameter and 4.5 cm high) for 5 min. After 1 h, animals were placed back into the arena for a 5 min test trial, during which one of the previously presented familiar objects was replaced with a novel object (a transparent glass elongated sphere-like object with an orange cap; 5.5 cm in diameter and 8.5 cm high). Time spent exploring (i.e., sniffing or touching) the familiar (Tfamiliar) and novel (Tnovel) objects was measured by a trained observer, and the recognition index (%) was calculated for each mouse [(Tnovel − Tfamiliar)/(Tfamiliar + Tnovel)] “×” 100.

[3] = system: DOI-induced head twitches in mice; experiment: DOI-induced head twitch test; type: in vivo
Experimental: The experiments were performed according to the procedure described in our previous studies. Briefly, to habituate mice to the experimental environment, each animal was transferred to a 12 cm (diameter) × 20 cm (height) glass cage lined with sawdust 30 min before treatment. Test compounds were administered intraperitoneally (i.p.) at doses of 2.5, 5, and 10 mg/kg body weight 60 min before the test was performed. The head twitch response (HTR) in mice was induced using DOI (2.5 mg/kg, i.p.). Immediately after treatment, the number of head twitches was counted during a 20 min session.

choice accuracy in rats = experiment: Spatial delayed alternation test; type: in vivo
[4] = system: MK-801-induced disruptions of social interactions in mice; experiment: Social interaction test (MK-801-induced deficits); type: in vivo; conditions: all tested doses
Experimental: The method was adapted from de Moura Linck et al., 2008 [57], and Woźniak et al., 2016 [58]. After the 2-day habituation trial (10 min/day), a pair of mice was placed in the open field for 5 min. The social interactions between the two mice were determined based on the total time spent participating in social behavior, such as genital investigation, sniffing, chasing, and fighting each other. The total number of social episodes was also measured. The test was video-recorded and viewed by a trained observer.

human mGlu8 receptor = target: T1, human mGlu8 receptor (Homo sapiens, UniProt O00222); experiment: mGlu8 receptor selectivity, cAMP accumulation screening at 10 µM; type: cell-based; conditions: group III mGlu receptors
T1 construct: expressed in transfected cells; host or cells: T-REx 293 (tetracycline-inducible)
T1 sequence (O00222 34-908): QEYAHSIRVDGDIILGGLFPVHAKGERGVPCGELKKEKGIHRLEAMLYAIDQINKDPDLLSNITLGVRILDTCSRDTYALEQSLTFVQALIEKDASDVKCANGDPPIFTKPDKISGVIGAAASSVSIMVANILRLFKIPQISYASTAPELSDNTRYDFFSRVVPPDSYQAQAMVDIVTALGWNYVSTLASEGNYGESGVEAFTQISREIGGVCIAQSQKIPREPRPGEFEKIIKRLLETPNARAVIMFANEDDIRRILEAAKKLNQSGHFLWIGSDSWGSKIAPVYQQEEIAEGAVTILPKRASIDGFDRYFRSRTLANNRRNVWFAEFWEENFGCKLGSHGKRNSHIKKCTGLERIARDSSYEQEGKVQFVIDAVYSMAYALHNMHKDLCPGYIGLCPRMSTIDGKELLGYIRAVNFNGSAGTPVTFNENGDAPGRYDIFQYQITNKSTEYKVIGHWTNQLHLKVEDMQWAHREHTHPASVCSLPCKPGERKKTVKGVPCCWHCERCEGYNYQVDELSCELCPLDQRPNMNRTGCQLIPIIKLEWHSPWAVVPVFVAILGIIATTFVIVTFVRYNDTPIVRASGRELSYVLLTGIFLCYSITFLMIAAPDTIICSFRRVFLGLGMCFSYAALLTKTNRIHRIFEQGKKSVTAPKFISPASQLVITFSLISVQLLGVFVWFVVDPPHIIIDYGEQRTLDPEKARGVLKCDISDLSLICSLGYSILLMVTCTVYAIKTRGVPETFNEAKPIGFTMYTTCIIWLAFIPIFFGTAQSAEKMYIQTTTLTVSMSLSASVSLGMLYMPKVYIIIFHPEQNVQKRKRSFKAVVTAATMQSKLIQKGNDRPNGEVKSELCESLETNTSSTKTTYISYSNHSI
Experimental: The cell lines with the tetracycline-inducible expression of human metabotropic receptors 4, 7, and 8 were described in detail by Chruścicka et al. (mGlu4 receptor NM_000841, mGlu7 receptor NM_000844.2, and mGlu8 receptor NM_000845). Cells were grown under standard cell culture conditions (37 °C, 5% CO2) in DMEM supplemented with 10% tetracycline-free FBS. The expression was induced through the addition of tetracycline to the culture medium at 0.75 μg/mL.
The determination of the intracellular cAMP through homogeneous time-resolved fluorescence (HTRF) was described in detail previously. […] The intracellular concentration of cyclic AMP was measured by means of a cAMP Gi HTRF kit from Cisbio, according to the manufacturer’s instructions. After 1 h of incubation at room temperature, the fluorescence at 620 nm and 665 nm was read (Tecan Infinite M1000). The results were calculated as the 665 nm/620 nm ratio multiplied by 10^4. […] Data were analyzed using GraphPad Prism version 5.04 for Windows (GraphPad Software, San Diego, USA).
Firstly, all compounds were screened at 10 μM using three cell lines expressing the mGlu4/7/8 receptor to evaluate selectivity. […] For compounds that passed the screening procedure, the dose–response curve in the presence of LSP4-2022 in 5 μM was evaluated compared to reference NAM ADX71743. […]

Compound | DOI-induced head twitches [1] | MK-801-induced disruptions in social interaction [1] | cognitive impairment in novel object recognition [1] | prepulse inhibition (PPI) [1] | activity in animal models of schizophrenia ([1]; mGlu7 NAMs) | MK-801-induced decrease in the recognition index (NOR) ([2]; mice, 1, 2.5, and 5 mg/kg) | recognition index, compound alone (NOR) ([2]; naïve mice) | DOI-induced head twitches in mGlu7 knockout (KO) mice ([3]; mGlu7 KO mice) | number of DOI-induced head shakes ([3]; mice, 2.5, 5, and 10 mg/kg i.p., vs control group) | choice accuracy, compound administered alone (choice accuracy in rats) | MK-801-induced disruptions in the number of alternations (choice accuracy in rats; highest dose tested 5 mg/kg) | MK-801-induced disruption in the interaction time [4] | MK-801-induced disruption in the number of episodes [4] | selectivity over mGlu8 (human mGlu8 receptor)
CCc1nc2c(o1)CC(c1ccc(C)cc1C)CC2=O (centres unmarked) [ADX71743, reference compound] | active | active | active | active | antipsychotic activity | – | – | – | – | – | – | – | – | –
COc1cccc(-c2ccc3nc(-c4ccccc4Cl)n(C)c(=O)c3c2)c1OC [ALX-171, 2-(2-chlorophenyl)-6-(2,3-dimethoxyphenyl)-3-methylquinazolin-4(3H)-one] | – | – | – | – | – | ameliorated | no significant impact | had no further effect | significantly attenuated | no negative effect | reversed | reversed | reversed | selective

— article PMC9916658, “Design and Synthesis of New Quinazolin-4-one Derivatives with Negative mGlu7 Receptor Modulation Activity and Antipsychotic-Like Properties” (International Journal of Molecular Sciences, 2023)
